pKd: −log10 of the molar value.
Test: Binding affinity to mouse brain tubulin assessed as dissociation constant by SPR analysis

With `O=[N+]([O-])CCc1cccc2ccccc12` as the compound, how does the pKd read?
Its pKd is 4.09.

— ChEMBL document CHEMBL6134834, “Aromatic nitroolefin with inhibition efficacy in triple-negative breast cancer cells by dual targeting RXRα and tubulins” (Eur J Med Chem, 2025)
